“And” between values parts separate entries of the source, which are not always exact repeats. Identical values can stand only once.
Target: SARS-CoV-2 Main Protease (SARS-CoV-2) (UniProt P0DTD1)

| SMILES | IC50 |
| --- | --- |
| Cc1ccc(CC(=O)Nc2cncc3ccccc23)cc1 | 58.4 µM |
| Cc1ccc2ncc(NC(=O)Cc3cccc(Cl)c3)n2c1 | 9.01 µM |
| CC(C)(C)c1ccc(N(C(=O)c2cccc(C#N)c2)C(C(=O)NCCc2cccc(F)c2)c2cccnc2)cc1 (configuration not stated) | > 99.5 µM |
| O=C(Cc1cc(Cl)cc(NC(c2ccccc2)c2ccccc2)c1)Nc1cncc2ccccc12 | 3.36 µM |
| N#CC1(CS(=O)(=O)N2Cc3ccc(Cl)cc3C(C(=O)Nc3cncc4cc(Cl)ccc34)C2)CC1 (configuration not stated) | 0.283 µM |
| Cn1ncc(S(=O)(=O)N2Cc3ccc(Cl)cc3C(C(=O)Nc3cncc4ccccc34)C2)n1 (configuration not stated) | 0.268 µM |
| O=C(CCl)N1CCN(Cc2cc(O)cc(Cl)c2)CC1 | 12.9 µM |
| COc1ccc(C(Cc2cnn(C)c2)C(=O)Nc2c[nH]c3ccccc23)cc1 (configuration not stated) | > 99.5 µM |
| O=C(Cc1cccc(Cl)c1)Nn1nnc2ccccc21 | 5.8 µM |
| O=C(COC(=O)C1(c2ccccc2)CCC1)c1c[nH]c2ccccc12 | > 99.5 µM |
| CNC(=O)CN1CC2(CCN(c3cncc4cccc(Cl)c34)C2=O)c2cc(Cl)ccc2C1=O (configuration not stated) | 1.67 µM |
| O=C(OCC(=O)N1CCC(Cc2ccccc2)CC1)c1cc(=O)[nH]c(=O)[nH]1 | > 99.5 µM |
| C=CC(=O)N(c1ccc(C(F)(F)F)cc1)C(C(=O)NCCc1cccc(F)c1)c1cncc(C)c1 (configuration not stated) | 24.3 µM |
| CC(C)(O)c1ccc(N(C(=O)c2cocn2)C(C(=O)NCCc2cccc(F)c2)c2cccnc2)cc1 (configuration not stated) | 26.5 µM |
| O=C(NCCO)c1ccc(N(C(=O)c2cocn2)C(C(=O)NCCc2cccc(F)c2)c2cccnc2)cc1 (configuration not stated) | > 99.5 µM |
| Cc1ccn2cnnc2c1NC(=O)Cc1cccc(Cl)c1 | 75.3 µM |
| COC(C)(C)/C=C/C[C@@H](C)[C@H]1CC[C@@]2(C)[C@@H]3[C@@H](O[C@@H]4O[C@H](CO)[C@@H](O)[C@H](O)[C@H]4O)C=C4[C@@H](CC[C@H](O)C4(C)C)[C@]3(C=O)CC[C@]12C (stereo in doubt) | > 99.5 µM |
| Cc1ccc(N(Cc2cscn2)C(=O)Cc2cncc3ccccc23)nc1 | > 99.5 µM |
| CC(C)(C)OC(=O)[C@H]1CCCN1c1cc(Cl)cc(CC(=O)Nc2cncc3ccccc23)c1 (stereo in doubt) | 2.52 µM |
| COc1cc(CN2CCN(C(=O)CCl)CC2)c2ccccc2c1 | 2.75 µM |
| Cc1cn2ccc(C(=O)Nc3nc(-c4cnn(C)c4)cs3)cc2n1 | > 99.5 µM |
| O=C(NCC1=[SH]C=CC1)[C@@H](c1ccccc1)N1Cc2ccccc2C1=O (stereo in doubt) | > 99.5 µM |
| CN1CCN(c2ncc(C(C(=O)NCCc3cccc(F)c3)N(C(=O)c3cocn3)c3ccc(C(C)(C)C)cc3)cn2)CC1 (configuration not stated) | > 99.5 µM |

| SMILES | IC50 |
| --- | --- |
| O=C(Cc1cc(Cl)cc(Nc2ccc3c(c2)OCCO3)c1)Nc1cncc2ccccc12 | 2.12 µM |
| O=C(Cc1cc(Cl)cc(Nc2ccc(Oc3ccccc3Cl)cc2)c1)Nc1cncc2ccccc12 | 2.49 µM |
| Cc1ccc2ccccc2c1Nc1cc(Cl)cc(CC(=O)Nc2cncc3ccccc23)c1 | 2.52 µM |
| O=C(Nc1cncc2ccncc12)[C@H]1CCOc2cc(F)c(Cl)cc21 (stereo in doubt) | > 99.5 µM |
| O=C(Nc1cncc2ccccc12)C1CCOc2c1ccc(Cl)c2Cl (configuration not stated) | 3.31 µM |
| O=C(Nc1cncc2ccccc12)[C@@H]1COc2ccc(Cl)cc21 (stereo in doubt) | 0.529 µM and 0.67 µM and 0.483 µM |
| O=C(NCC1CCCCC1)[C@@H]1CN(C(=O)CCl)CCN1S(=O)(=O)c1ccsc1 (stereo in doubt) | 1.1 µM |
| CC1=C[C@@H](c2c(O)cc(-c3cc4ccc(O)cc4o3)cc2O)[C@@H](C(=O)c2ccc(O)cc2O)[C@H](c2ccc(O)cc2O)C1 (stereo in doubt) | > 99.5 µM |
| O=C(Cc1cc(Cl)cc(Nc2ccc([N+](=O)[O-])cc2C(F)(F)F)c1)Nc1cncc2ccccc12 | 2.01 µM |
| Cc1ccncc1NC(=O)C(C)c1cc(Cl)cc(OC2CC(=O)N2)c1 (configuration not stated) | 77.1 µM |
| N#CC1(CS(=O)(=O)N2Cc3ccc(Cl)cc3C3(CCN(c4cncc5ccc(F)cc45)C3=O)C2)CC1 (configuration not stated) | 0.828 µM |
| CC(C)(C)c1ccc(N(C(=O)c2nc3ncc(CCO)cn3n2)C(C(=O)NCCc2cccc(F)c2)c2cccnc2)cc1 (configuration not stated) | > 99.5 µM |
| CC(C)(C)c1ccc(N(C(=O)c2cocn2)C(C(=O)NCc2cccnc2)c2cccnc2)cc1 (configuration not stated) | 25.3 µM |
| O=C(NCCc1cccc(F)c1)C(c1cccnc1)N(C(=O)c1cocn1)C1CCCOC1 (configuration not stated) | > 99.5 µM |
| CC1CCNC(=O)C1NC(=O)Cc1cccc(Cl)c1 (configuration not stated) | 43.7 µM |
| CC(C)(C)c1cc(Nc2cc(Cl)cc(CC(=O)Nc3cncc4ccccc34)c2)n(-c2ccccc2)n1 | 2.04 µM |
| Cc1cc(C)c(C)c(S(=O)(=O)N2CCN(C(=O)c3cc(=O)[nH]c4ccccc34)CC2)c1C | 8.19 µM and 8.74 µM |
| CN(C)C(=O)COCC1(C(=O)Nc2cncc3ccccc23)CCOc2ccc(Cl)cc21 (configuration not stated) | 0.652 µM |
| N#CC1(CS(=O)(=O)N2Cc3ccc(Cl)cc3[C@H](C(=O)Nc3cncc4ccccc34)C2)CNC1 (stereo in doubt) | 0.0562 µM and 0.0849 µM |
| Cc1ccncc1N(CC#N)C(=O)Cc1cccc(Cl)c1 | > 99.5 µM |
| O=C(NCCc1nnc2n1CCC2)c1cc(O)nc2ccccc12 | > 99.5 µM |
| O=C(NC[C@@]1(C(=O)Nc2cncc3ccccc23)CCOc2ccc(Cl)cc21)[C@]1(O)CCSC1 (stereo in doubt) | 1.94 µM |
| O=C(Cc1cc(Cl)cc(Nc2ccc(O)cc2[N+](=O)[O-])c1)Nc1cncc2ccccc12 | 5.33 µM |

| SMILES | IC50 |
| --- | --- |
| Cc1cc(Nc2ccc3nc(C)sc3c2)n2ncnc2n1 | > 99.5 µM |
| O=C(CN1CC2(CCN(c3cncc4ccccc34)C2=O)c2cc(Cl)ccc2S1(=O)=O)NCC1CC1 (configuration not stated) | 0.203 µM |
| O=C1NCC(C(=O)Nc2cncc3cc(F)ccc23)c2cc(Cl)ccc21 (configuration not stated) | 1.15 µM |
| O=C(Cc1cc(Cl)cc(N2CCN(C(=O)C3CC3)CC2)c1)Nc1cncc2ccccc12 | 2.01 µM |
| N#CC1(CS(=O)(=O)N2Cc3ccc(Cl)cc3C3(CCN(c4cncc5ccc(OCCN6CCCC6)cc45)C3=O)C2)CC1 (configuration not stated) | 0.225 µM |
| O=C(Nc1cncc2ccccc12)C1CCOc2c(O)ccc(Cl)c21 (configuration not stated) | > 99.5 µM |
| O=C(CCl)N1CCN(Cc2cc(Cl)cc(Cl)c2)CC1 | 1.89 µM |
| Nc1ccccc1-c1nc2ccccc2n1-c1cc(Cl)cc(CC(=O)Nc2cncc3ccccc23)c1 | 5.09 µM |
| CC(=O)N1CCc2ccc(Cl)cc2C1C(=O)Nc1cncc2ccccc12 (configuration not stated) | 2.85 µM |
| O=C(Nc1ccccn1)[C@H]1CN(C(=O)CCl)CCN1S(=O)(=O)c1ccsc1 (stereo in doubt) | 4.77 µM |
| Cn1c(=O)[nH]c(=O)c2ccc(C(=O)N(c3ccc(C(C)(C)C)cc3)C(C(=O)NCCc3cccc(F)c3)c3cccnc3)nc21 (configuration not stated) | > 99.5 µM |
| Cc1cccc(CC2CCN(C(=O)CCl)CC2)c1 | 14.7 µM |
| Cc1ccc(-n2ncc3c(=O)n(CC(N)=O)cnc32)cc1C | > 99.5 µM |
| O=C(Cc1cccc(C(F)(F)F)c1)Nc1cnccc1C(=O)O | > 99.5 µM |
| CN(C)CCOc1ccc2cncc(NC(=O)C3CN(S(=O)(=O)CC4(C)CS(=O)(=O)C4)Cc4ccc(Cl)cc43)c2c1 (configuration not stated) | 0.125 µM |
| O=C(Cc1cccc(Cl)c1)Nc1cnc2n1CCCC2 | 93.8 µM |
| O=C(Cc1cc(Cl)cc(Nc2cccc3ccc(O)cc23)c1)Nc1cncc2ccccc12 | 3.2 µM |
| O=C(Nc1n[nH]c2ccncc12)C1CCOc2ccc(Cl)cc21 (configuration not stated) | 70.3 µM |
| CC(C)(C)NC(=O)CN1CC(C(=O)Nc2cncc3ccccc23)c2cc(Cl)ccc2C1=O (configuration not stated) | 0.523 µM |
| Cc1ccccc1C(C)N(C(=O)c1cocn1)C(C(=O)NCCc1cccc(F)c1)c1cccnc1 (configuration not stated) | > 99.5 µM |
| C=CC(=O)N(c1ccc(C(C)(C)C)cc1)[C@@H](C(=O)NCCc1cccc(F)c1)c1cccnc1 (stereo in doubt) | 86.4 µM |

From the COVID Moonshot data (paper PMC7615835)
